Results: ChEMBL document CHEMBL3885861, “Open TG-GATES”
“And” between values parts separate entries of the source, which are not always exact repeats. Identical values can stand only once.

Organism: Rattus norvegicus
Assay: Open TG-GATES - Regimen: Single
Type: toxicity, organism-based, Sprague-Dawley
Parameters: regimen Single, gender Male, age 6 weeks
Details: in vivo, po, route gavage; for LIVER: tissue Liver; for ALP / ALT / AST / BUN / CRE / Ca / Cl / GLC / IP / K / LDH / Na / PL / RALB / TC / TP / gamma-GTP / DBIL / TBIL: tissue Plasma; for APTT / Bas / Eos / Fbg / Hb / Ht / Lym / MCH / MCHC / MCV / Mono / Neu / PT / Plat / RBC / Ret / WBC: tissue Blood; for KIDNEY_L / KIDNEY_R / KIDNEY_TOTAL: tissue Kidney
[1] = 0 mg/kg, 24 h, dose level Control

`O=P1(N(CCCl)CCCl)NCCCO1` (stereo unspecified) [CYCLOPHOSPHAMIDE ANHYDROUS] was tested, and the LIVER [1] was 9.8 g and 8.7 g, the ALP [1] was 1816 IU/L and 1543.8 IU/L and the ALT [1] was 45.6 IU/L and 38 IU/L. The AST [1] was 71.2 IU/L and 71.6 IU/L, the BUN [1] was 16.4 mg/dL and 13.6 mg/dL and the CRE [1] was 0.2 mg/dL. For the same molecule, the Ca [1] was 10.7 mg/dL and 11.1 mg/dL, the Cl [1] was 104.8 meq/L and 105.8 meq/L and the GLC [1] was 189.6 mg/dL and 178.8 mg/dL. For the same molecule, the IP [1] was 7.3 mg/dL and 7.8 mg/dL, the K [1] was 4.4 meq/L and the LDH [1] was 192.2 IU/L and 79 IU/L. For the same molecule, the Na [1] was 142.6 meq/L and 141 meq/L, the PL [1] was 161.6 mg/dL and 160.8 mg/dL and the RALB [1] was 2.9 g/dL and 2.6 g/dL. For the same molecule, the TC [1] was 82 mg/dL and 82.6 mg/dL, the TP [1] was 5.4 g/dL and 5.6 g/dL and the gamma-GTP [1] was 1.2 IU/L. For the same molecule, the TERMINAL_BW (2 mg/kg, 3 h, dose level Low) was 191.9 g, the APTT (2 mg/kg, 3 h, dose level Low) was 22.6 s and the Bas (2 mg/kg, 3 h, dose level Low) was 0%. For the same molecule, the Eos (2 mg/kg, 3 h, dose level Low) was 0.4%, the Fbg (2 mg/kg, 3 h, dose level Low) was 284.6 mg/dL and the Hb (2 mg/kg, 3 h, dose level Low) was 13.1 g/dL. For the same molecule, the Ht (2 mg/kg, 3 h, dose level Low) was 39.2%, the Lym (2 mg/kg, 3 h, dose level Low) was 85.4% and the MCH (2 mg/kg, 3 h, dose level Low) was 21.8 pg. It also gave an MCHC (2 mg/kg, 3 h, dose level Low) of 33.3%, an MCV (2 mg/kg, 3 h, dose level Low) of 65.4 fL and a Mono (2 mg/kg, 3 h, dose level Low) of 1.4%. For the same molecule, the Neu (2 mg/kg, 3 h, dose level Low) was 12.4%, the PT (2 mg/kg, 3 h, dose level Low) was 15.9 s and the Plat (2 mg/kg, 3 h, dose level Low) was 119.4 x10_4/uL. The RBC (2 mg/kg, 3 h, dose level Low) was 600.4 x10_4/ul, the Ret (2 mg/kg, 3 h, dose level Low) was 8.8% and the WBC (2 mg/kg, 3 h, dose level Low) was 81 x10_2/uL. The KIDNEY_L (2 mg/kg, 3 h, dose level Low) was 0.9 g, the KIDNEY_R (2 mg/kg, 3 h, dose level Low) was 0.9 g and the KIDNEY_TOTAL (2 mg/kg, 3 h, dose level Low) was 1.8 g. It also gave an LIVER (2 mg/kg, 3 h, dose level Low) of 9 g, an ALP (2 mg/kg, 3 h, dose level Low) of 1623.4 IU/L and an ALT (2 mg/kg, 3 h, dose level Low) of 42.2 IU/L. The AST (2 mg/kg, 3 h, dose level Low) was 73.4 IU/L, the BUN (2 mg/kg, 3 h, dose level Low) was 12.4 mg/dL and the CRE (2 mg/kg, 3 h, dose level Low) was 0.1 mg/dL. For the same molecule, the Ca (2 mg/kg, 3 h, dose level Low) was 10.8 mg/dL, the Cl (2 mg/kg, 3 h, dose level Low) was 107.2 meq/L and the DBIL (2 mg/kg, 3 h, dose level Low) was 0 mg/dL. It also gave a GLC (2 mg/kg, 3 h, dose level Low) of 190 mg/dL, an IP (2 mg/kg, 3 h, dose level Low) of 7.9 mg/dL and a K (2 mg/kg, 3 h, dose level Low) of 4.1 meq/L. For the same molecule, the LDH (2 mg/kg, 3 h, dose level Low) was 181.4 IU/L, the Na (2 mg/kg, 3 h, dose level Low) was 144 meq/L and the PL (2 mg/kg, 3 h, dose level Low) was 119.2 mg/dL. For the same molecule, the RALB (2 mg/kg, 3 h, dose level Low) was 2.9 g/dL, the TBIL (2 mg/kg, 3 h, dose level Low) was 0.022 mg/dL and the TC (2 mg/kg, 3 h, dose level Low) was 64.4 mg/dL. For the same molecule, the TP (2 mg/kg, 3 h, dose level Low) was 5.2 g/dL, the gamma-GTP (2 mg/kg, 3 h, dose level Low) was 1 IU/L and the TERMINAL_BW (2 mg/kg, 6 h, dose level Low) was 187.4 g. For the same molecule, the APTT (2 mg/kg, 6 h, dose level Low) was 21.7 s, the Bas (2 mg/kg, 6 h, dose level Low) was 0% and the Eos (2 mg/kg, 6 h, dose level Low) was 0.8%. The Fbg (2 mg/kg, 6 h, dose level Low) was 301.4 mg/dL, the Hb (2 mg/kg, 6 h, dose level Low) was 13.1 g/dL and the Ht (2 mg/kg, 6 h, dose level Low) was 39.4%. The Lym (2 mg/kg, 6 h, dose level Low) was 76.2%, the MCH (2 mg/kg, 6 h, dose level Low) was 21.4 pg and the MCHC (2 mg/kg, 6 h, dose level Low) was 33.4%. It also gave an MCV (2 mg/kg, 6 h, dose level Low) of 64.2 fL, a Mono (2 mg/kg, 6 h, dose level Low) of 2.2% and a Neu (2 mg/kg, 6 h, dose level Low) of 20.2%. For the same molecule, the PT (2 mg/kg, 6 h, dose level Low) was 16 s, the Plat (2 mg/kg, 6 h, dose level Low) was 121.6 x10_4/uL and the RBC (2 mg/kg, 6 h, dose level Low) was 613.6 x10_4/ul. The Ret (2 mg/kg, 6 h, dose level Low) was 8.5%, the WBC (2 mg/kg, 6 h, dose level Low) was 94.5 x10_2/uL and the KIDNEY_L (2 mg/kg, 6 h, dose level Low) was 0.9 g. For the same molecule, the KIDNEY_R (2 mg/kg, 6 h, dose level Low) was 0.9 g, the KIDNEY_TOTAL (2 mg/kg, 6 h, dose level Low) was 1.7 g and the LIVER (2 mg/kg, 6 h, dose level Low) was 8 g. It also gave an ALP (2 mg/kg, 6 h, dose level Low) of 1350.2 IU/L, an ALT (2 mg/kg, 6 h, dose level Low) of 39.2 IU/L and an AST (2 mg/kg, 6 h, dose level Low) of 69.2 IU/L. The BUN (2 mg/kg, 6 h, dose level Low) was 10.2 mg/dL, the CRE (2 mg/kg, 6 h, dose level Low) was 0.1 mg/dL and the Ca (2 mg/kg, 6 h, dose level Low) was 10.6 mg/dL. It also gave a Cl (2 mg/kg, 6 h, dose level Low) of 106.8 meq/L, a DBIL (2 mg/kg, 6 h, dose level Low) of 0 mg/dL and a GLC (2 mg/kg, 6 h, dose level Low) of 184.8 mg/dL. It also gave an IP (2 mg/kg, 6 h, dose level Low) of 9.4 mg/dL, a K (2 mg/kg, 6 h, dose level Low) of 4.4 meq/L and an LDH (2 mg/kg, 6 h, dose level Low) of 195.2 IU/L. It also gave a Na (2 mg/kg, 6 h, dose level Low) of 142.8 meq/L, a PL (2 mg/kg, 6 h, dose level Low) of 136.8 mg/dL and an RALB (2 mg/kg, 6 h, dose level Low) of 2.9 g/dL. For the same molecule, the TBIL (2 mg/kg, 6 h, dose level Low) was 0.032 mg/dL, the TC (2 mg/kg, 6 h, dose level Low) was 78.2 mg/dL and the TP (2 mg/kg, 6 h, dose level Low) was 5.3 g/dL. The gamma-GTP (2 mg/kg, 6 h, dose level Low) was 1.2 IU/L, the TERMINAL_BW (2 mg/kg, 9 h, dose level Low) was 193.9 g and the APTT (2 mg/kg, 9 h, dose level Low) was 20.9 s. It also gave a Bas (2 mg/kg, 9 h, dose level Low) of 0%, an Eos (2 mg/kg, 9 h, dose level Low) of 0.6% and a Fbg (2 mg/kg, 9 h, dose level Low) of 312.6 mg/dL. It also gave a Hb (2 mg/kg, 9 h, dose level Low) of 12.9 g/dL, a Ht (2 mg/kg, 9 h, dose level Low) of 38.9% and a Lym (2 mg/kg, 9 h, dose level Low) of 76.4%. It also gave an MCH (2 mg/kg, 9 h, dose level Low) of 21.2 pg, an MCHC (2 mg/kg, 9 h, dose level Low) of 33.1% and an MCV (2 mg/kg, 9 h, dose level Low) of 64.1 fL. It also gave a Mono (2 mg/kg, 9 h, dose level Low) of 1.6%, a Neu (2 mg/kg, 9 h, dose level Low) of 20.6% and a PT (2 mg/kg, 9 h, dose level Low) of 16.1 s. For the same molecule, the Plat (2 mg/kg, 9 h, dose level Low) was 120.1 x10_4/uL, the RBC (2 mg/kg, 9 h, dose level Low) was 607.2 x10_4/ul and the Ret (2 mg/kg, 9 h, dose level Low) was 8.3%. It also gave a WBC (2 mg/kg, 9 h, dose level Low) of 83.5 x10_2/uL, a KIDNEY_L (2 mg/kg, 9 h, dose level Low) of 0.9 g and a KIDNEY_R (2 mg/kg, 9 h, dose level Low) of 0.9 g. The KIDNEY_TOTAL (2 mg/kg, 9 h, dose level Low) was 1.8 g, the LIVER (2 mg/kg, 9 h, dose level Low) was 8.3 g and the ALP (2 mg/kg, 9 h, dose level Low) was 1429.8 IU/L. It also gave an ALT (2 mg/kg, 9 h, dose level Low) of 36.4 IU/L, an AST (2 mg/kg, 9 h, dose level Low) of 69 IU/L and a BUN (2 mg/kg, 9 h, dose level Low) of 10.2 mg/dL. It also gave a CRE (2 mg/kg, 9 h, dose level Low) of 0.2 mg/dL, a Ca (2 mg/kg, 9 h, dose level Low) of 10.7 mg/dL and a Cl (2 mg/kg, 9 h, dose level Low) of 106.4 meq/L. The DBIL (2 mg/kg, 9 h, dose level Low) was 0 mg/dL, the GLC (2 mg/kg, 9 h, dose level Low) was 179.2 mg/dL and the IP (2 mg/kg, 9 h, dose level Low) was 10.1 mg/dL. The K (2 mg/kg, 9 h, dose level Low) was 4 meq/L, the LDH (2 mg/kg, 9 h, dose level Low) was 221 IU/L and the Na (2 mg/kg, 9 h, dose level Low) was 143.4 meq/L. The PL (2 mg/kg, 9 h, dose level Low) was 142.4 mg/dL, the RALB (2 mg/kg, 9 h, dose level Low) was 3.1 g/dL and the TBIL (2 mg/kg, 9 h, dose level Low) was 0.036 mg/dL. The TC (2 mg/kg, 9 h, dose level Low) was 81.2 mg/dL, the TP (2 mg/kg, 9 h, dose level Low) was 5.4 g/dL and the gamma-GTP (2 mg/kg, 9 h, dose level Low) was 1 IU/L.
